Assay results as given in PubChem BioAssay (NCI).
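The compound was tested at five concentrations on cells cultured in 96-well plates, with a 48-hour exposure period. The concentration for full growth arrest is given as TGI.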 Where a SMILES comes first, the peptide text is derived from it. The star is where a group is joined. Cbz = O=C(OCc1ccccc1)*; NHNH2 = NN*

Tests used:
Test in all cases: growth of human tumour cells (NCI), 48 h
[1] = test system: HS 578T breast
[2] = test system: HOP-92 NSCLC
[3] = test system: MOLT-4 leukemia
[4] = test system: A549 NSCLC
[5] = test system: NCI-H460 lung
[6] = test system: COLO 205 colon
[7] = test system: UO-31 renal
[8] = test system: K-562 leukemia
[9] = test system: MDA-N
[10] = test system: ACHN renal
[11] = test system: MALME-3M melanoma
[12] = test system: SW-620 colon
[13] = test system: SR leukemia
[14] = test system: HOP-62 NSCLC
[15] = test system: HT29 colon
[16] = test system: 786-0 renal
[17] = test system: MDA-MB-231 breast
[18] = test system: RPMI-8226 leukemia
[19] = test system: TK-10 renal
[20] = test system: KM12 colon
[21] = test system: M14 melanoma
[22] = test system: HL-60(TB) leukemia
[23] = test system: SK-MEL-5 melanoma
[24] = test system: U251 CNS
[25] = test system: OVCAR-8 ovarian
[26] = test system: HCC-2998 colon
[27] = test system: EKVX NSCLC
[28] = test system: IGROV1 ovarian
[29] = test system: SK-MEL-2 melanoma
[30] = test system: NCI-H226 lung
[31] = test system: OVCAR-5 ovarian
[32] = test system: BT-549 breast
[33] = test system: HCT-116 colon
[34] = test system: SNB-19 CNS
[35] = test system: MCF7 breast
[36] = test system: UACC-257 melanoma
[37] = test system: UACC-62 melanoma
[38] = test system: HCT-15 colon
[39] = test system: SK-MEL-28 melanoma
[40] = test system: SN12C renal
[41] = test system: SNB-75 CNS
[42] = test system: PC-3 prostate
[43] = test system: A498 renal
[44] = test system: NCI-H23 lung
[45] = test system: NCI-H522 lung
[46] = test system: RXF 393 renal
[47] = test system: CAKI-1 renal
[48] = test system: OVCAR-3 ovarian
[49] = test system: SF-295 CNS
[50] = test system: SF-268 CNS
[51] = test system: OVCAR-4 ovarian
[52] = test system: NCI/ADR-RES ovarian
[53] = test system: LOX IMVI melanoma
[54] = test system: DU-145 prostate
[55] = test system: CCRF-CEM leukemia
[56] = test system: MDA-MB-435
[57] = test system: SK-OV-3 ovarian
[58] = test system: SF-539 CNS
[59] = test system: T-47D breast

Measured: TGI

CCOC(=O)CCC(NC(=O)OCc1ccccc1)C(=O)NC(CCC(=O)OCC)C(=O)NN (stereo not drawn) (Cbz-Glu(OEt)-Glu(OEt)-NHNH2; configuration not given here)
not listed: [44] | [45] | [46] | [47] | [48] | [49] | [50] | [51] | [52] | [53] | [54] | [55] | [56] | [57] | [58] | [59]
> 100 µM: all other assays above

CSCCCNC(=O)c1csc(-c2csc(CCNC(=O)CNC(=O)CNC(=O)OC(C)(C)C)n2)n1
not listed: [18] | [59]
> 100 µM: all other assays above

C(=Nc1ccc(-c2nc3ccccc3[nH]2)cc1)c1ccco1
not listed: [5] | [17] | [24] | [34] | [49] | [57]
> 100 µM: all other assays above

COC1CCC(=O)N1CN(C(C)=O)c1ccc(C)cc1 (stereo not drawn)
not listed: [2] | [11] | [22] | [27] | [28] | [32] | [43] | [45] | [55]
> 100 µM: all other assays above
